# In patent US6399618B1, “Compositions and methods for modulating sexual activity” (priority 1997, dated 2002):
# Where a name gives a salt, the structure may show the parent alone. Marks after values point to notes of the source that are not given here.
# How the values were obtained:
# male primates = assay: Primate sexual behavior, isolated observation study; type: in vivo, Macaca fascilaris; settings: for # of behavioral Purse Lip Gesture / # of behavioral Yawning / Grade 0 (glans hidden from view) / Grade 1 (glans clearly visible) / Grade 2 (penis extended) / Grade 3 (full erection) / Grade 4 (erection with masturbation) / Grade 5 (erection with masturbation and ejaculation): isolation, 1 hour, n=6
# Procedure: Adult male Macaca fascilaris (3.8-8 kg, n=6) were injected (0.1-10.0 mg/kg; ip; 0.5 mL/kg body weight) with either saline or compound XVIb and observed 10 minutes later for behavioral responses and locomotion for 1 hour. Monkeys used for testing were injected and observed in separate locations remote from housing environment. Each monkey received a dose of XVIb at 72 hour intervals.
# In Table 4, the effect of compound XVIb on erectile responses is reported for male primates observed in isolation. Data are expressed as mean (sem, standard error of measurements) for 6 test animals. Penile responses were scored every 10 seconds for 1 hour according to the following scale: Grade 0=glans hidden from view, Grade 1=glans clearly visible, Grade 2=penis extended, Grade 3=full erection, Grade 4=erection with masturbation, Grade 5=erection with masturbation and ejaculation. In Table 4, data marked with an asterisk “*” indicate a significant difference from saline as determined by repeated measures ANOVA and Dunnetts test for multiple comparisons (α<0.05). The data in Table 4 are reported as % genital observations.
# male rats [1] = assay: Antagonism of XVIb-induced erections by comparative compounds in rats; type: in vivo, SD rats; settings: XVIb 16 mg/kg ip; n=6
# Procedure: Male SD rats (300-500 g; n=6 per group) were injected with (±)-Pindolol, scopolamine, haloperidol, or ketanserin, 30 minutes prior to injection of a single dose of XVIb (16 mg/kg, ip) or saline.
# male rats [2] = assay: Rat behavior, blood chemistry and body temperature; type: in vivo, SD rats
# Procedure: Male SD rats (350-450 g; n=15 per group) were injected with a single dose of XVIb (16 mg/kg, ip) and saline and observed 5 minutes later, in pairs, for erections, ejaculation, movement and grooming over a 60 minute observation period. Rectal temperature was recorded before drug administration and 1 hour after drug administration. At the end of experiments rats were decapitated and trunk blood was collected for RIA analysis of serum cortisol and prolactin levels.
# [3] = 16 mg/kg ip, RIA of trunk blood at end of experiment
compound,measurement,setting,value
"CN1CCN(C(=O)Cc2ccc3ccccc3c2)CC1 [Compound XVIb, 1-Methyl-4(2-naphthaleneacetyl)piperazine monohydrochloride]",# of behavioral Purse Lip Gesture,male primates; 0.1 mg/kg ip,5.8 ± 3.9 #
same,# of behavioral Yawning,male primates; 0.1 mg/kg ip,8.8 ± 4.5 #
same,Grade 0 (glans hidden from view),male primates; 0.1 mg/kg ip,81.8 ± 8.2 % genital observations
same,Grade 1 (glans clearly visible),male primates; 0.1 mg/kg ip,17.8 ± 7.9 % genital observations
same,Grade 2 (penis extended),male primates; 0.1 mg/kg ip,0.4 ± 0.3 % genital observations
same,Grade 3 (full erection),male primates; 0.1 mg/kg ip,0 ± 0 % genital observations
same,Grade 4 (erection with masturbation),male primates; 0.1 mg/kg ip,0 ± 0 % genital observations
same,Grade 5 (erection with masturbation and ejaculation),male primates; 0.1 mg/kg ip,0 ± 0 % genital observations
same,# of behavioral Purse Lip Gesture,male primates; 0.3 mg/kg ip,10.2 ± 3.9 #
same,# of behavioral Yawning,male primates; 0.3 mg/kg ip,11.7 ± 3.8 #
same,Grade 0 (glans hidden from view),male primates; 0.3 mg/kg ip,67.3 ± 12.2 % genital observations
same,Grade 1 (glans clearly visible),male primates; 0.3 mg/kg ip,32.8 ± 11.5 % genital observations
same,Grade 2 (penis extended),male primates; 0.3 mg/kg ip,0.5 ± 0.5 % genital observations
same,Grade 3 (full erection),male primates; 0.3 mg/kg ip,0 ± 0 % genital observations
same,Grade 4 (erection with masturbation),male primates; 0.3 mg/kg ip,0 ± 0 % genital observations
same,Grade 5 (erection with masturbation and ejaculation),male primates; 0.3 mg/kg ip,0 ± 0 % genital observations
same,# of behavioral Purse Lip Gesture,male primates; 1.0 mg/kg ip,7.5 ± 3.4 #
same,# of behavioral Yawning,male primates; 1.0 mg/kg ip,11.3 ± 2.5 #
same,Grade 0 (glans hidden from view),male primates; 1.0 mg/kg ip,72.0 ± 12.0 % genital observations
same,Grade 1 (glans clearly visible),male primates; 1.0 mg/kg ip,26.6 ± 10.6 % genital observations
same,Grade 2 (penis extended),male primates; 1.0 mg/kg ip,1.4 ± 1.4 % genital observations
same,Grade 3 (full erection),male primates; 1.0 mg/kg ip,0 ± 0 % genital observations
same,Grade 4 (erection with masturbation),male primates; 1.0 mg/kg ip,0 ± 0 % genital observations
same,Grade 5 (erection with masturbation and ejaculation),male primates; 1.0 mg/kg ip,0 ± 0 % genital observations
same,# of behavioral Purse Lip Gesture,male primates; 3.0 mg/kg ip,14.0 ± 8.3 #
same,# of behavioral Yawning,male primates; 3.0 mg/kg ip,13 ± 3.4 #
same,Grade 0 (glans hidden from view),male primates; 3.0 mg/kg ip,56.8 ± 7.8 % genital observations
same,Grade 1 (glans clearly visible),male primates; 3.0 mg/kg ip,42.1 ± 8.3 % genital observations
same,Grade 2 (penis extended),male primates; 3.0 mg/kg ip,1.7 ± 1.4 % genital observations
same,Grade 3 (full erection),male primates; 3.0 mg/kg ip,0.3 ± 0.3 % genital observations
same,Grade 4 (erection with masturbation),male primates; 3.0 mg/kg ip,0 ± 0 % genital observations
same,Grade 5 (erection with masturbation and ejaculation),male primates; 3.0 mg/kg ip,0 ± 0 % genital observations
same,# of behavioral Purse Lip Gesture,male primates; 10.0 mg/kg ip,33 ± 14* #
same,# of behavioral Yawning,male primates; 10.0 mg/kg ip,14.0 ± 4.0 #
same,Grade 0 (glans hidden from view),male primates; 10.0 mg/kg ip,24.5 ± 7.6 % genital observations
same,Grade 1 (glans clearly visible),male primates; 10.0 mg/kg ip,72.1 ± 7.7* % genital observations
same,Grade 2 (penis extended),male primates; 10.0 mg/kg ip,2.5 ± 1.0 % genital observations
same,Grade 3 (full erection),male primates; 10.0 mg/kg ip,0.9 ± 0.6 % genital observations
same,Grade 4 (erection with masturbation),male primates; 10.0 mg/kg ip,0 ± 0 % genital observations
same,Grade 5 (erection with masturbation and ejaculation),male primates; 10.0 mg/kg ip,0 ± 0 % genital observations
same,grade 1 penile erections (in words),"male primates; 0.1-10 mg/kg, primates observed in isolation, significance only at the highest dose",dose dependently (0.1-10 mg/kg) increased grade 1 penile erections
same,Advanced grades of penile erection (grades 2-5) (in words),male primates; any dose (0.1-10 mg/kg),not significantly affected at any dose
same,erections with XVIb without antagonist (pindolol comparison),male rats [1],7.8±1.4 erections/60 minutes
same,erections with XVIb without antagonist (scopolamine comparison),male rats [1],1.7 erections/60 minutes
same,Serum cortisol,male rats [2]; [3],not significantly altered
same,Serum prolactin,male rats [2]; [3],not significantly altered
same,Rearing,"male rats [2]; 16 mg/kg ip, n=15",77±5.9 rears/60 minutes
same,erections,"male rats [2]; 16 mg/kg ip, n=15",5.6±0.7 erections/60 minutes
same,locomotion,"male rats [2]; 16 mg/kg ip, n=15",20.7±3.3 moves
same,non-penile grooming,"male rats [2]; 16 mg/kg ip, n=15",22±4.8 grooms/60 minutes
same,penile grooming,"male rats [2]; 16 mg/kg ip, n=15",12.1±3.3 grooms/60 minutes
same,ejaculations,"male rats [2]; 16 mg/kg ip, n=15, 60 minute observation",1.8±0.1 ejaculations
same,Rectal temperature,"male rats [2]; 16 mg/kg, before and 1 hour after drug administration",not significantly altered
